Where two headings read alike, the source gives them in different places.
Target: T1, SIRT1 (Homo sapiens, UniProt Q96EB6)
T1 sequence (Q96EB6 1-747): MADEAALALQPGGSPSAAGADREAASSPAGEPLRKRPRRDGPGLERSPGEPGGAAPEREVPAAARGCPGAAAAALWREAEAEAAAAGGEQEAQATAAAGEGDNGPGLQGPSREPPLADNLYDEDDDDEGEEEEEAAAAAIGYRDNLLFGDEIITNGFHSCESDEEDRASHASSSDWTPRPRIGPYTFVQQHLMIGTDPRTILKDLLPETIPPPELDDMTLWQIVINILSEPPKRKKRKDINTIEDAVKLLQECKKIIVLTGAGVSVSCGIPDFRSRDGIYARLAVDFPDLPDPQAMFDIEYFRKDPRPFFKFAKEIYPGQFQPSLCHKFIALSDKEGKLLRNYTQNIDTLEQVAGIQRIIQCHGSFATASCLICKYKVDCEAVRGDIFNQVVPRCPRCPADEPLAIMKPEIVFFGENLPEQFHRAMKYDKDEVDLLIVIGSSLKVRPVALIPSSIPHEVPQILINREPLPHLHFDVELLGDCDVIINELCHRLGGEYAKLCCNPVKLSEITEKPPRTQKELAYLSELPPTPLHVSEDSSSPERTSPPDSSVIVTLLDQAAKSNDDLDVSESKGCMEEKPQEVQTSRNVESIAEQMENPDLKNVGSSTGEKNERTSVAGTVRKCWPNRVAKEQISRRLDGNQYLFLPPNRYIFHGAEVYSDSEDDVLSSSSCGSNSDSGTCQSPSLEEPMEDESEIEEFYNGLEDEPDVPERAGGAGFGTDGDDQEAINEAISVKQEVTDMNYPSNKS
Experiment: Trp mass spectrometry assay (SIRT1 activation)
Assay type: biochemical
Conditions: for Emax: percent maximum fold activation of SIRT1, read-out: Tryp % Fold Act
Description: Mass spectrometry based assays were used to identify modulators of SIRT1 activity. […] The peptide was labeled with the fluorophore 5TMR (excitation 540 nm/emission 580 nm) at the C-terminus. The sequence of the peptide substrate was based on p53 with several modifications. In addition, the methionine residue naturally present in the sequence was replaced with the norleucine because the methionine may be susceptible to oxidation during synthesis and purification. The Trp based assay utilized a peptide having an amino acid residues as follows: Ac-R-H-K-K(Ac)-W-NH2 (SEQ ID NO: 2).
The Trp mass spectrometry assay was conducted as follows. 0.5 μM peptide substrate and 120 μM βNAD^+ were incubated with 10 nM SIRT1 for 25 minutes at 25° C. in a reaction buffer (50 mM HEPES pH 7.5, […] NaCl, 1 mM DTT, 0.05% BSA). The SIRT1 protein was obtained by cloning the SirT1 gene into a T7-promoter containing vector, which was then expressed in BL21(DE3) bacterial cells and purified as described in further detail below. Test compound was added at varying concentrations to this reaction mixture and the resulting reactions were monitored. After the 25 minute incubation with SIRT1, 10 μL of 10% formic acid was added to stop the reaction. The resulting reactions were sealed and frozen for later mass spec analysis. The relative SIRT1 activity was then determined by measuring the amount of 0-acetyl-ADP-ribose (OAADPR) formed (or, alternatively, the amount of deacetylated Trp peptide generated) by the NAD-dependent sirtuin deacetylation reaction in the presence of varying concentrations of the test compound versus control reactions lacking the test compound. The degree to which the test agent activated deacetylation by SIRT1 was expressed as EC1.5 (i.e., the concentration of compound required to increase SIRT1 activity by 50% over the control lacking test compound), and Percent Maximum Activation (i.e., the maximum activity relative to control (100%) obtained for the test compound).
A control for activation of sirtuin activity was conducted using 10 nM of sirtuin protein, with 1 μL of DMSO in place of compound, to determine the amount of deacetylation of the substrate at a given time point within the linear range of the assay. This time point was the same as that used for test compounds and, within the linear range, the endpoint represents a change in velocity.
For the above assay, SIRT1 protein was expressed and purified as follows. The SirT1 gene was cloned into a T7-promoter containing vector and transformed into BL21(DE3). The protein was expressed by induction with 1 mM IPTG as an N-terminal His-tag fusion protein at 18° C. overnight and harvested at 30,000×g. Cells were lysed with lysozyme in lysis buffer (50 mM Tris-HCl, 2 mM Tris[2-carboxyethyl] phosphine (TCEP), 10 μM ZnCl2, 200 mM NaCl) and further treated with sonication for 10 min for complete lysis. The protein was purified over a Ni-NTA column (Amersham) and fractions containing pure protein were pooled, concentrated and run over a sizing column (Sephadex S200 26/60 global). The peak containing soluble protein was collected and run on an Ion-exchange column (MonoQ). Gradient elution (200 mM-500 mM NaCl) yielded pure protein. This protein was concentrated and dialyzed against dialysis buffer (20 mM Iris-HCl, 2 mM TCEP) overnight. The protein was aliquoted and frozen at −80° C. until further use.

[1] = Trp mass spectrometry assay, EC1.5 = concentration giving 150% activation of SIRT1
[2] = concentration of test compound that results in 150% activation of SIRT1, Trp peptide substrate
[3] = Trp mass spectrometry assay, EC1.5 = concentration of test compound that results in 150% activation of SIRT1

Tryp AVG EC1.5 (μM) [1]	Emax (Trp mass spectrometry assay) [%]	Tryp AVG EC1.5 (μM) [2]	Emax (Trp peptide substrate) [%]	Tryp AVG EC1.5 (μM) [3]	SMILES
A (EC1.5<1 μM)	≥ 150	–	–	–	O=C(Nc1cccc(Br)n1)N1c2nc(-c3cccc(C(F)(F)F)c3)ccc2N2CC[C@H]1C2 [Example 652]
–	–	A (EC1.5<1 μM)	≥ 150	–	COc1cncc(NC(=O)N2c3nc(-c4cccc(N5CCCC5)c4)ccc3N3CC[C@H]2C3)n1 [Example 366]
–	≥ 150	–	–	A (EC1.5<1 μM)	COc1cc(NC(=O)N2c3nc(-c4cccc(C#N)c4)ccc3N3CC[C@H]2C3)ncn1 [Example 140]
–	–	B (EC1.5 1-25 μM)	≥ 150	–	O=C(Nc1ccncn1)N1c2nc(-c3cncc(Cl)c3)ccc2N2CCC1CC2 [Example 576]
–	–	A (EC1.5<1 μM)	≥ 150	–	N#Cc1cccc(-c2ccc3c(n2)N(C(=O)Nc2ccncn2)[C@H]2CCCN3C2)c1 [Example 352]
–	–	B (EC1.5 1-25 μM)	≥ 150	–	COc1cc(NC(=O)N2c3nc(-c4cccc(N5CCOCC5)c4)ccc3N3CCC[C@H]2C3)ncn1 [Example 528]
–	–	A (EC1.5<1 μM)	≥ 150	–	O=C(Nc1ccncn1)N1c2nc(-c3cncc(C(F)(F)F)c3)ccc2N2CC[C@H]1C2 [Example 276]
–	–	B (EC1.5 1-25 μM)	≥ 150	–	O=C(Nc1cnccn1)N1c2nc(-c3cccc(Cl)c3)cc(O)c2N2CC[C@H]1C2 [Example 443]
–	–	B (EC1.5 1-25 μM)	≥ 150	–	COc1cc(NC(=O)N2c3nc(-c4cccc(N(C)C)c4)ccc3N3CCC[C@@H]2C3)ncn1 [Example 265]
–	–	B (EC1.5 1-25 μM)	≥ 150	–	Cn1ccc(-c2ccc3c(n2)N(C(=O)Nc2ccccn2)[C@H]2CCN3C2)n1 [Example 331]
–	≥ 150	–	–	–	Cn1ccc(NC(=O)N2c3nc(-c4cccc(C(F)(F)F)c4)ccc3N3CC[C@H]2C3)n1 [Example 25]
–	–	A (EC1.5<1 μM)	≥ 150	–	O=C(Nc1cnccn1)N1c2nc(-c3cccc(N4CC[C@H](F)C4)c3)ccc2N2CC[C@H]1C2 [Example 268]
–	≥ 150	–	–	B (EC1.5 1-25 μM)	COc1cc(NC(=O)N2c3nc(-c4cccc(Cl)c4)ccc3N3CC[C@H]2C3)ncn1 [Example 104]
–	≥ 150	–	–	B (EC1.5 1-25 μM)	Cc1cc(C)nc(NC(=O)N2c3nc(-c4cccc(Cl)c4)ccc3N3CC[C@H]2C3)c1 [Example 105]
–	–	A (EC1.5<1 μM)	≥ 150	–	O=C(Nc1cnccn1)N1c2nc(-c3cncc(Cl)c3)ccc2N2CCC[C@H]1C2 [Example 417]

Second part, the molecule before the results:

SMILES	Tryp AVG EC1.5 (μM) [1]	Emax (Trp mass spectrometry assay) [%]	Tryp AVG EC1.5 (μM) [2]	Emax (Trp peptide substrate) [%]	Tryp AVG EC1.5 (μM) [3]
COc1cc(NC(=O)N2c3nc(-c4cncc(F)c4)ccc3N3CCC2CC3)nc(OC)n1 [Example 578]	–	–	B (EC1.5 1-25 μM)	≥ 150	–
O=C(Nc1cccc(-c2cnco2)c1)N1c2nc(-c3cncc(C(F)(F)F)c3)ccc2N2C[C@@H](O)[C@H]1C2 [Example 709]	A (EC1.5<1 μM)	≥ 150	–	–	–
CN(C)[C@H]1CCN(c2ccc3c(n2)N(C(=O)Nc2nccs2)[C@H]2CCN3C2)C1 [Example 247]	–	–	B (EC1.5 1-25 μM)	≥ 150	–
O=C(Nc1ccncn1)N1c2nc(-c3cccc(N4CCOCC4)c3)ccc2N2CCC[C@H]1C2 [Example 529]	–	–	B (EC1.5 1-25 μM)	≥ 150	–
Cc1cc(-c2ccc3c(n2)N(C(=O)Nc2cncc(-c4cnco4)c2)[C@H]2CCN3C2)ccn1 [Example 748]	A (EC1.5<1 μM)	≥ 150	–	–	–
O=C(Nc1ccc2[nH]ncc2c1)N1c2nc(-c3cccc(C(F)(F)F)c3)ccc2N2CC[C@H]1C2 [Example 666]	A (EC1.5<1 μM)	≥ 150	–	–	–
O=C(Nc1ccncn1)N1c2nc(-c3cncc(F)c3)ccc2N2CCC1CC2 [Example 573]	–	–	C (EC1.5>25 μM)	< 150	–
Cc1ccncc1-c1ccc2c(n1)N(C(=O)Nc1cncc(F)c1)[C@H]1CCCN2C1 [Example 510]	–	–	B (EC1.5 1-25 μM)	≥ 150	–
Cc1cncc(NC(=O)N2c3nc(-c4cncc(C(F)(F)F)c4)ccc3N3C[C@@H](O)[C@H]2C3)c1 [Example 690]	B (EC1.5 1-25 μM)	≥ 150	–	–	–
Cn1cc(-c2ccc3c(n2)N(C(=O)Nc2cccnc2)[C@H]2CCN3C2)cn1 [Example 395]	–	–	B (EC1.5 1-25 μM)	≥ 150	–
NCCCc1ccc(NC(=O)N2c3nc(-c4cccc(C(F)(F)F)c4)ccc3N3CC[C@H]2C3)cc1-c1cnco1 [Example 765]	A (EC1.5<1 μM)	≥ 150	–	–	–
CC(C)(C)c1ccccc1NC(=O)N1c2nc(-c3cccc(C(F)(F)F)c3)ccc2N2CC[C@H]1C2 [Example 70]	–	< 150	–	–	–
O=C(Nc1ccncc1)N1c2nc(-c3cccc(C(F)(F)F)c3)ccc2N2CC[C@@H]1C2 [Example 824]	A (EC1.5<1 μM)	≥ 150	–	–	–
O=C(Nc1cccc(-c2cnco2)c1)N1c2nc(N3CCCN(CC(F)(F)F)CC3)ccc2N2CC[C@H]1C2 [Example 741]	A (EC1.5<1 μM)	≥ 150	–	–	–
O=C(Nc1cnccn1)N1c2nc(N3CCCC(C(F)(F)F)C3)ccc2N2CCC[C@@H]1C2 (stereo partly drawn) [Example 307]	–	–	B (EC1.5 1-25 μM)	≥ 150	–
Cc1nc(NC(=O)N2c3nc(-c4cncc(F)c4)ccc3N3CCC2CC3)sc1C [Example 577]	–	–	B (EC1.5 1-25 μM)	≥ 150	–
O=C(Nc1cncc(F)c1)N1c2nc(-c3cccc(N4CCOCC4)c3)ccc2N2CCC[C@H]1C2 [Example 559]	–	–	A (EC1.5<1 μM)	≥ 150	–
O=C(NCCCc1ccncc1)N1c2nc(-c3cccc(C(F)(F)F)c3)ccc2N2CC[C@H]1C2 [Example 633]	B (EC1.5 1-25 μM)	≥ 150	–	–	–
C#CCCCNc1nccc(NC(=O)N2c3nc(-c4cccc(C5(C(F)(F)F)N=N5)c4)ccc3N3CC[C@H]2C3)n1 [Example 798]	A (EC1.5<1 μM)	≥ 150	–	–	–
CC(=O)c1sc(NC(=O)N2c3nc(-c4cccc(C(F)(F)F)c4)ccc3N3CC[C@H]2C3)nc1C [Example 75]	–	≥ 150	–	–	A (EC1.5<1 μM)
O=C(Nc1cncc(F)c1)N1c2nc(-c3cncc(C(F)(F)F)c3)ccc2N2C[C@@H](O)[C@H]1C2 [Example 691]	B (EC1.5 1-25 μM)	≥ 150	–	–	–
O=C(Nc1cnccn1)N1c2nc(-c3cncc(Cl)c3)ccc2N2CCC1CC2 [Example 550]	–	–	B (EC1.5 1-25 μM)	≥ 150	–
